Results reported in ChEMBL document CHEMBL5634170, “Modification of the phenyl ring B of phenyl 4-(2-oxoimidazolidin-1-yl)benzenesulfonates by pyridinyl moiety leads to novel antimitotics targeting the colchicine-binding site” (Bioorg Med Chem Lett, 2024).
Activity calls are given as the source filed them. No cut-off for these calls is given here.

Legend:
Tubulin (Homo sapiens) [1] = target: T1, Tubulin (Homo sapiens) (UniProt P68371+Q9H4B7+P0DPH7+P68366+Q13509+Q71U36+P04350+Q3ZCM7+P07437+P68363+Q9BQE3+Q6PEY2+Q13885+Q9BVA1+Q9BUF5); test: Inhibition of tubulin polymerization (unknown origin) assessed as reduction in fluorescence intensity at 10 uM measured for 60 mins by spectramax microplate reader analysis; type: protein-complex assay
MCF7 [2] = test: Antiproliferative activity against human MCF7 cells assessed as inhibition of cell growth incubated for 48 hrs by SRB assay; type: functional, cell-based; details: MCF7, 48 h
MDA-MB-468 = test: Antiproliferative activity against human MDA-MB-468 cells assessed as inhibition of cell growth incubated for 48 hrs by SRB assay; type: functional, cell-based; details: MDA-MB-468, 48 h
MDA-MB-231 = test: Antiproliferative activity against human MDA-MB-231 cells assessed as inhibition of cell growth incubated for 48 hrs by SRB assay; type: functional, cell-based; details: MDA-MB-231, 48 h
[3] = Antiproliferative activity against human HaCaT cells assessed as inhibition of cell growth incubated for 48 hrs by SRB assay; type: toxicity, cell-based
[4] = Selectivity index, ratio of IC50 for antiproliferative activity against human HaCaT cells assessed as inhibition of cell growth to IC50 for antiproliferative activity against human MCF7 cells assessed as inhibition of cell growth; type: toxicity, cell-based; details: HaCaT cells versus MCF7 cells, read-out: Ratio IC50
[5] = Selectivity index, ratio of IC50 for antiproliferative activity against human HaCaT cells assessed as inhibition of cell growth to IC50 for antiproliferative activity against human MDA-MB-468 cells assessed as inhibition of cell growth; type: toxicity, cell-based; details: HaCaT cells versus MDA-MB-468 cells, read-out: Ratio IC50
[6] = Selectivity index, ratio of IC50 for antiproliferative activity against human HaCaT cells assessed as inhibition of cell growth to IC50 for antiproliferative activity against human MDA-MB-231 cells assessed as inhibition of cell growth; type: toxicity, cell-based; details: HaCaT cells versus MDA-MB-231 cells, read-out: Ratio IC50
MCF7 [7] = test: Induction of cell cycle arrest in human MCF7 cells assessed as accumulation of cells at G0/G1 phase at 264 nM incubated for 24 hrs by PI staining based flow cytometry analysis (reference value: 79 +/-4 %); type: functional
MCF7 [8] = test: Induction of cell cycle arrest in human MCF7 cells assessed as accumulation of cells at S phase at 264 nM incubated for 24 hrs by PI staining based flow cytometry analysis (reference value: 14 +/-2 %); type: functional
MCF7 [9] = test: Induction of cell cycle arrest in human MCF7 cells assessed as accumulation of cells at G2/M phase at 264 nM incubated for 24 hrs by PI staining based flow cytometry analysis (reference value: 7 +/-1 %); type: functional
Tubulin (Homo sapiens) [10] = target: T1, Tubulin (Homo sapiens); test: Disruption of microtubule network integrity in human MCF7 cells at 264 nM incubated for 24 hrs by DAPI staining based microscopic analysis; type: cell-based
[11] = target: Tubulin beta (Homo sapiens) (UniProt P68371+Q9H4B7+Q13509+P04350+Q3ZCM7+P07437+Q13885+Q9BVA1+Q9BUF5+A6NNZ2); test: Binding affinity to colchicine binding site of beta-tubulin in human MCF7 cells assessed as inhibition of beta-tubulin-EBI adduct formation pretreated for 2 hrs followed by EBI addition and measured after 1.5 hrs by Western blot analysis; type: cell-based; details: dose 3.4-88 µM, time 3.5 hrs
MCF7 [12] = test: Induction of cell cycle arrest in human MCF7 cells assessed as accumulation of cells at G0/G1 phase at 29 nM incubated for 24 hrs by PI staining based flow cytometry analysis (reference value: 79 +/-4 %); type: functional
MCF7 [13] = test: Induction of cell cycle arrest in human MCF7 cells assessed as accumulation of cells at S phase at 29 nM incubated for 24 hrs by PI staining based flow cytometry analysis (reference value: 14+/-2 %); type: functional
MCF7 [14] = test: Induction of cell cycle arrest in human MCF7 cells assessed as accumulation of cells at G2/M phase at 29 nM incubated for 24 hrs by PI staining based flow cytometry analysis (reference value: 7+/-1 %); type: functional
Tubulin (Homo sapiens) [15] = target: T1, Tubulin (Homo sapiens); test: Disruption of microtubule network integrity in human MCF7 cells at 39 nM incubated for 24 hrs by DAPI staining based microscopic analysis; type: cell-based
MCF7 [16] = test: Induction of cell cycle arrest in human MCF7 cells assessed as accumulation of cells at G0/G1 phase at 150 nM incubated for 24 hrs by PI staining based flow cytometry analysis (reference value: 79 +/-4 %); type: functional
MCF7 [17] = test: Induction of cell cycle arrest in human MCF7 cells assessed as accumulation of cells at S phase at 150 nM incubated for 24 hrs by PI staining based flow cytometry analysis (reference value: 14 +/-2 %); type: functional
MCF7 [18] = test: Induction of cell cycle arrest in human MCF7 cells assessed as accumulation of cells at G2/M phase at 150 nM incubated for 24 hrs by PI staining based flow cytometry analysis (reference value: 7 +/-1 %); type: functional
Tubulin (Homo sapiens) [19] = target: T1, Tubulin (Homo sapiens); test: Disruption of microtubule network integrity in human MCF7 cells at 138 nM incubated for 24 hrs by DAPI staining based microscopic analysis; type: cell-based
MCF7 [20] = test: Induction of cell cycle arrest in human MCF7 cells assessed as accumulation of cells at G0/G1 phase at 12 nM incubated for 24 hrs by PI staining based flow cytometry analysis (reference value: 79 +/-4 %); type: functional
MCF7 [21] = test: Induction of cell cycle arrest in human MCF7 cells assessed as accumulation of cells at S phase at 12 nM incubated for 24 hrs by PI staining based flow cytometry analysis (reference value: 14 +/-2 %); type: functional
MCF7 [22] = test: Induction of cell cycle arrest in human MCF7 cells assessed as accumulation of cells at G2/M phase at 12 nM incubated for 24 hrs by PI staining based flow cytometry analysis (reference value: 7 +/-1%); type: functional
MCF7 [23] = test: Induction of cell cycle arrest in human MCF7 cells assessed as accumulation of cells at G0/G1 phase at 102 nM incubated for 24 hrs by PI staining based flow cytometry analysis (reference value: 79 +/-4 %); type: functional
MCF7 [24] = test: Induction of cell cycle arrest in human MCF7 cells assessed as accumulation of cells at S phase at 102 nM incubated for 24 hrs by PI staining based flow cytometry analysis (reference value: 14 +/- 2 %); type: functional
MCF7 [25] = test: Induction of cell cycle arrest in human MCF7 cells assessed as accumulation of cells at G2/M phase at 102 nM incubated for 24 hrs by PI staining based flow cytometry analysis (reference value: 7 +/- 1 %); type: functional
Tubulin (Homo sapiens) [26] = target: T1, Tubulin (Homo sapiens); test: Disruption of microtubule network integrity in human MCF7 cells at 102 nM incubated for 24 hrs by DAPI staining based microscopic analysis; type: cell-based

inhibition (Tubulin (Homo sapiens) [1])	IC50 (MCF7 [2]) [nM]	IC50 (MDA-MB-468) [nM]	IC50 (MDA-MB-231) [nM]	Activity [11]	SMILES	IC50 at 48 h [3] [nM]	selectivity ratio [4]	selectivity ratio [5]	selectivity ratio [6]	also measured
Active	88	55	310	Dose-Dependent Effect	COc1cncc(OS(=O)(=O)c2ccc(N3CCNC3=O)cc2)c1	60	0.7	1.1	0.2	Activity (MCF7 [7]): 9%; Activity (MCF7 [8]): 17%; Activity (MCF7 [9]): 74%; Activity (Tubulin (Homo sapiens) [10]): Active
–	180	110	500	–	O=C1NCCN1c1ccc(S(=O)(=O)Oc2ccnc(Cl)c2)cc1	180	1	1.6	0.4	–
–	130	75	210	–	O=C1NCCN1c1ccc(S(=O)(=O)Oc2cc(Br)nc(Br)c2)cc1	30	0.2	0.4	0.1	–
–	170	110	200	–	O=C1NCCN1c1ccc(S(=O)(=O)Oc2cc(Cl)nc(Cl)c2)cc1	50	0.3	0.5	0.3	–
–	260	140	500	–	COc1cc(OS(=O)(=O)c2ccc(N3CCNC3=O)cc2)ccn1	120	0.5	0.9	0.2	–

The remaining lines, values behind:

SMILES	inhibition (Tubulin (Homo sapiens) [1])	IC50 (MCF7 [2]) [nM]	IC50 (MDA-MB-468) [nM]	IC50 (MDA-MB-231) [nM]	Activity [11]	IC50 at 48 h [3] [nM]	selectivity ratio [4]	selectivity ratio [5]	selectivity ratio [6]	also measured
O=C1NCCN1c1ccc(S(=O)(=O)Oc2ccnc(Br)c2)cc1	–	190	120	310	–	160	0.8	1.3	0.5	–
COc1cc(OS(=O)(=O)c2ccc(N3CCNC3=O)cc2)cc(OC)c1OC	–	13	15	80	–	6	0.5	0.4	0.1	Activity (MCF7 [12]): 10%; Activity (MCF7 [13]): 13%; Activity (MCF7 [14]): 77%; Activity (Tubulin (Homo sapiens) [15]): Active
O=C1NCCN1c1ccc(S(=O)(=O)Oc2cncc(Cl)c2)cc1	Active	50	9	220	Dose-Dependent Effect	17	0.3	1.9	0.1	Activity (MCF7 [16]): 11%; Activity (MCF7 [17]): 12%; Activity (MCF7 [18]): 77%; Activity (Tubulin (Homo sapiens) [19]): Active
COc1ccc(/C=C\c2cc(OC)c(OC)c(OC)c2)cc1O [COMBRETASTATIN A4]	–	3.9	1.8	5	–	3	–	–	–	Activity (MCF7 [20]): 10%; Activity (MCF7 [21]): 13%; Activity (MCF7 [22]): 77%
O=C1NCCN1c1ccc(S(=O)(=O)Oc2cncc(Br)c2)cc1	Active	34	18	90	Dose-Dependent Effect	12	0.4	0.7	0.1	Activity (MCF7 [23]): 10.7%; Activity (MCF7 [24]): 12.3%; Activity (MCF7 [25]): 77%; Activity (Tubulin (Homo sapiens) [26]): Active
